# Experimental data from patent US11312682B2, “Selective inhibitors of carbonic anhydrase” (VILNIUS UNIVERSITY, priority 2015, dated 2022).
# Read-outs that look alike come from different tables or passages of the source.
# Key:
# [1] = molecular target: human recombinant CA VI (Homo sapiens, UniProt P23280); experiment: Fluorescent thermal shift assay (FTSA), binding to CA VI; settings: Table 1; FTSA at 37° C. and pH 7.0; read-out: Dissociation constants, CA VI
# [2] = molecular target: human recombinant CA VII (Homo sapiens, UniProt P43166); experiment: Fluorescent thermal shift assay (FTSA), binding to CA VII; settings: Table 1; FTSA at 37° C. and pH 7.0; read-out: Dissociation constants, CA VII
# Sequence of human recombinant CA VII (P43166 whole entry): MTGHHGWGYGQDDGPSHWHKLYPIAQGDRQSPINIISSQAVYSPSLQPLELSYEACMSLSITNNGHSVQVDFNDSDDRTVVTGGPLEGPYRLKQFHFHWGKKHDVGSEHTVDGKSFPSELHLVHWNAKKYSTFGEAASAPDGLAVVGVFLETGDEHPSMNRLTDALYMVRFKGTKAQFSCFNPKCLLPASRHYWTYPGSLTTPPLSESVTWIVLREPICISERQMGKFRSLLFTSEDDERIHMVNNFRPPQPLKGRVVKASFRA
# [3] = molecular target: human recombinant CA IX (Homo sapiens, UniProt Q16790); experiment: Fluorescent thermal shift assay (FTSA), binding to CA IX; settings: read-out: Dissociation constants, CA IX
# [4] = molecular target: human recombinant CA XII (Homo sapiens, UniProt O43570); experiment: Fluorescent thermal shift assay (FTSA), binding to CA XII; settings: read-out: Dissociation constants, CA XII
# Sequence of human recombinant CA XII (O43570 25-354): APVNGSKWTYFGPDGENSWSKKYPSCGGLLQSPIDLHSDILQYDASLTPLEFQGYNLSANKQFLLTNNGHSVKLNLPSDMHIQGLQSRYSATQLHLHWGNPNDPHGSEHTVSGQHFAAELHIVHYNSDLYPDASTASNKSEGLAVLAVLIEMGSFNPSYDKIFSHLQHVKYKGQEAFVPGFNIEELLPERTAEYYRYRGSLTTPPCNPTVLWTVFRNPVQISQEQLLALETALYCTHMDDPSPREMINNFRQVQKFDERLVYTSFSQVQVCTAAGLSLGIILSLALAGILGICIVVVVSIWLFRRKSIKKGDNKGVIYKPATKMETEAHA
# [5] = molecular target: human recombinant CA XIV (Homo sapiens, UniProt Q9ULX7); experiment: Fluorescent thermal shift assay (FTSA), binding to CA XIV; settings: read-out: Dissociation constants, CA XIV
# Sequence of human recombinant CA XIV (Q9ULX7 16-337): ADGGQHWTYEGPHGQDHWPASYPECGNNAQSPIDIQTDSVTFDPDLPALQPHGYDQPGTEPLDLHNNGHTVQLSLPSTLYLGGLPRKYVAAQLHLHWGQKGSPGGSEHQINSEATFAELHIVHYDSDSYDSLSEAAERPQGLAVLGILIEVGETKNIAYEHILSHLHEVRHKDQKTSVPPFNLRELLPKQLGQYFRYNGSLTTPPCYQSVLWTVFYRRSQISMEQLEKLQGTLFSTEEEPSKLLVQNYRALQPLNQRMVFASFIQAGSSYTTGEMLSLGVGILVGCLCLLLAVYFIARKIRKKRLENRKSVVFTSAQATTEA
# [6] = molecular target: human recombinant CA XIII (Homo sapiens, UniProt Q8N1Q1); experiment: Fluorescent thermal shift assay (FTSA), binding to CA XIII; settings: Table 1; FTSA at 37° C. and pH 7.0; read-out: Dissociation constants, CA XIII
# Sequence of human recombinant CA XIII (Q8N1Q1 whole entry): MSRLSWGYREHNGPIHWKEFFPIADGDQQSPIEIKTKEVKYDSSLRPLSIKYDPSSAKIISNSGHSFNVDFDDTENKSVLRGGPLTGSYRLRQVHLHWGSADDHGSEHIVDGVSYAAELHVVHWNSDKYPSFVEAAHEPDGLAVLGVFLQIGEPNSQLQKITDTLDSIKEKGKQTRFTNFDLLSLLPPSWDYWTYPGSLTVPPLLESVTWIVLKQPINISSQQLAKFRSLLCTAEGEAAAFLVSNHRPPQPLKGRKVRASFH
# [7] = molecular target: human recombinant CA VA (Homo sapiens, UniProt P35218); experiment: Fluorescent thermal shift assay (FTSA), binding to CA VA; settings: Table 1; FTSA at 37° C. and pH 7.0; read-out: Dissociation constants, CA VA
# Sequence of human recombinant CA VA (P35218 39-305): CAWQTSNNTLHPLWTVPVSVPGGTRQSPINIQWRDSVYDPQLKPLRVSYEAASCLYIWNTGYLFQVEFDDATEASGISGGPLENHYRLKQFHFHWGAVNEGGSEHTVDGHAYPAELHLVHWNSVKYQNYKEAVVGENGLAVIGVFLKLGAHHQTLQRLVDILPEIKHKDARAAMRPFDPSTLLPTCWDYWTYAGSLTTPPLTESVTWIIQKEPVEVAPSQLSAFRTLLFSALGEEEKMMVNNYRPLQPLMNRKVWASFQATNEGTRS
# [8] = molecular target: human recombinant CA III (Homo sapiens, UniProt P07451); experiment: Fluorescent thermal shift assay (FTSA), binding to CA III; settings: Table 1; FTSA at 37° C. and pH 7.0; read-out: Dissociation constants, CA III
# Sequence of human recombinant CA III (P07451 whole entry): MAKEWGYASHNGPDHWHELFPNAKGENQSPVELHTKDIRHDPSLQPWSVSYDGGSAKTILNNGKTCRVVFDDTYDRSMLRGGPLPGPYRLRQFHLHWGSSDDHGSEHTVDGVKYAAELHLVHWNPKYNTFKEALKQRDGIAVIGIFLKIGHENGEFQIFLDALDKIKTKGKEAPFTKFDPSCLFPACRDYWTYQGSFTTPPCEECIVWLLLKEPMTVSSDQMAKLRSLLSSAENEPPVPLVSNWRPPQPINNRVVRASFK
# [9] = molecular target: human recombinant CA IV (Homo sapiens, UniProt P22748); experiment: Fluorescent thermal shift assay (FTSA), binding to CA IV; settings: Table 1; FTSA at 37° C. and pH 7.0; read-out: Dissociation constants, CA IV
# Sequence of human recombinant CA IV (P22748 19-284): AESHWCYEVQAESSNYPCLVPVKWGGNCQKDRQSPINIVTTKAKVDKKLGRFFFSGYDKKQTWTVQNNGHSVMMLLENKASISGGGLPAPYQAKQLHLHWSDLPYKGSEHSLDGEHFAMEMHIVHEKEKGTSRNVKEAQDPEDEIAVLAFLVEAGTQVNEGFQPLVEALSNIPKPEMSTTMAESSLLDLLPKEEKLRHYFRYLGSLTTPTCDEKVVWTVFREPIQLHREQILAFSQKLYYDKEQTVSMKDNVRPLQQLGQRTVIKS
# [10] = molecular target: human recombinant CA VB (Homo sapiens, UniProt Q9Y2D0); experiment: Fluorescent thermal shift assay (FTSA), binding to CA VB; settings: Table 1; FTSA at 37° C. and pH 7.0; read-out: Dissociation constants, CA VB
# Sequence of human recombinant CA VB (Q9Y2D0 34-317): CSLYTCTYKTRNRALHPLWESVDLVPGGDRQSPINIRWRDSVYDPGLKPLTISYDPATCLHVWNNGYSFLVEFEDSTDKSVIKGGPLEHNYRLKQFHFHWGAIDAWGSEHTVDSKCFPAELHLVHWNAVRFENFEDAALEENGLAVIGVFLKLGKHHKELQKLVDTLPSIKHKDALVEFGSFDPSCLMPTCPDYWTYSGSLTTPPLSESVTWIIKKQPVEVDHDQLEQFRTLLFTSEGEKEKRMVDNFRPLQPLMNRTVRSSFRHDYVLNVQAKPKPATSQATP
# [11] = molecular target: human recombinant CA I (Homo sapiens, UniProt P00915); experiment: Fluorescent thermal shift assay (FTSA), binding to CA I; settings: Table 3; FTSA at 37° C., pH 7.0; read-out: Dissociation constants, CA I
# Sequence of human recombinant CA I (P00915 whole entry): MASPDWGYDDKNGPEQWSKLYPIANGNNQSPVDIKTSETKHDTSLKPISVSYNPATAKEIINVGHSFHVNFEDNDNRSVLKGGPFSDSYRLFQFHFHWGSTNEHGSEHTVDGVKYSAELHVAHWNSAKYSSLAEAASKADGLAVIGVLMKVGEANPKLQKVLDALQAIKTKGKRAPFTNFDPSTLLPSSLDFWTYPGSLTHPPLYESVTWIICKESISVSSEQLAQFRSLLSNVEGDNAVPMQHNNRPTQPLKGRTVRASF
# [12] = molecular target: human recombinant CA II (Homo sapiens, UniProt P00918); experiment: Fluorescent thermal shift assay (FTSA), binding to CA II; settings: read-out: Dissociation constants, CA II
# [13] = Table 1, FTSA at 37° C. and pH 7.0
# [14] = Table 3, FTSA at 37° C., pH 7.0
# Sequence of human recombinant CA VI (P23280 18-308): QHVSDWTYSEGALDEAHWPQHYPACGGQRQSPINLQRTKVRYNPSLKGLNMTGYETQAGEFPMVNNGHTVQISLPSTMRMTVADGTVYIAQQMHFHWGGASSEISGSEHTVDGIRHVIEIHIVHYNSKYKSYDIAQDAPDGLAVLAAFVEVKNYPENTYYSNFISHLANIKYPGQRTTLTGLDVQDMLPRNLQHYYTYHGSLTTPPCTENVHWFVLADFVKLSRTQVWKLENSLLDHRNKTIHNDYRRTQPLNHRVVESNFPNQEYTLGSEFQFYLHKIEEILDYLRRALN
Compound,Kd [2] [nM],"Kd [3, 13] [nM]","Kd [5, 13] [nM]",Kd [6] [nM],Kd [7] [nM],Kd [11] [nM],"Kd [4, 14] [nM]","Kd [3, 14] [nM]","Kd [12, 14] [nM]",further results
"2,4-dichloro-5-[2-(5-methoxybenzimidazol-1-yl)acetyl]benzenesulfonamide and 2,4-dichloro-5-[2-(6-methoxybenzimidazol-1-yl)acetyl]benzenesulfonamide [Compound 31]",300,400,40,600,6,–,–,–,–,"Kd [1]: 1800 nM; Kd [4, 13]: 2800 nM; Kd [8]: 40000 nM; Kd [9]: 1400 nM; Kd [10]: 700 nM"
"COC(=O)c1cc(S(N)(=O)=O)c(Cl)cc1Sc1ccccc1 [Compound 14a, methyl 4-chloro-2-phenylsulfanyl-5-sulfamoyl-benzoate]",–,–,–,–,–,10000,6.7,–,–,–
"COC(=O)c1cc(S(N)(=O)=O)c(Cl)cc1SC1CCCCC1 [Compound 14b, methyl 4-chloro-2-cyclohexylsulfanyl-5-sulfamoyl-benzoate]",–,–,–,–,–,17000,33,0.3,250,–
"COC(=O)c1cc(S(N)(=O)=O)c(Cl)cc1SCc1ccccc1 [Compound 14c, methyl 2-benzylsulfanyl-4-chloro-5-sulfamoyl-benzoate]",–,–,–,–,–,6900,22,2.9,110,–
"COC(=O)c1cc(S(N)(=O)=O)c(Cl)cc1SCCc1ccccc1 [Compound 14d, methyl 4-chloro-2-phenethylsulfanyl-5-sulfamoyl-benzoate]",–,–,–,–,–,13000,53,13,170,–
"NS(=O)(=O)c1cc(C(=O)Cn2cnc3ccccc32)ccc1Cl [Compound 19, 5-[2-(benzimidazol-1-yl)acetyl]-2-chloro-benzenesulfonamide]",–,–,50,800,0.3,–,–,–,–,Kd [1]: 700 nM; Kd [8]: > 200000 nM; Kd [9]: 600 nM
"Cc1cc2ncn(CC(=O)c3ccc(Cl)c(S(N)(=O)=O)c3)c2cc1C [Compound 20, 2-chloro-5-[2-(5,6-dimethylbenzimidazol-1-yl)acetyl]benzenesulfonamide]",–,600,50,800,0.8,–,–,–,–,"Kd [4, 13]: 3100 nM; Kd [12, 13]: 600 nM"
"NS(=O)(=O)c1cc(C(=O)Cn2cnc3ccccc32)c(Cl)cc1Cl [Compound 29, 5-[2-(benzimidazol-1-yl)acetyl]-2,4-dichloro-benzenesulfonamide]",100,400,20,700,2,–,–,–,–,–
"Cc1cc2ncn(CC(=O)c3cc(S(N)(=O)=O)c(Cl)cc3Cl)c2cc1C [Compound 30, 2,4-dichloro-5-[2-(5,6-dimethylbenzimidazol-1-yl)acetyl]benzenesulfonamide]",700,–,300,–,5,–,–,–,–,"Kd [12, 13]: 500 nM"
"COC(=O)c1cc(S(N)(=O)=O)c(Cl)cc1S(=O)(=O)c1ccccc1 [Compound 42a, methyl 2-(benzenesulfonyl)-4-chloro-5-sulfamoyl-benzoate]",–,–,–,–,–,–,–,–,–,"Kd ([5]; Table 2, FTSA at 37° C., pH 7.0): 0.03 nM"
